Assay results from paper PMC10141620 (Viruses, 2023).
Values joined by “and” are separate entries in the source; they are usually repeats but may differ in a detail not shown here. Equal entries are not always repeated.

How the values were obtained:
Format in all cases: cell-based
[1] = system: SARS-CoV-2 USA-WA1/2020 D614G pseudovirus
[2] = system: SARS-CoV-2 Brazil (Gamma: K417T/E484K/N501Y) pseudovirus
[3] = system: SARS-CoV-2 mutant (D614G) and variants of concern (VOC) pseudoviruses; conditions: read-out: IC50, range over all variant pseudoviruses

How did the IC50 [1] turn out when Cc1ccc2nc3s/c(=C/c4coc(-c5ccc(Cl)c(C(=O)O)c5)c4)c(=O)n3c2c1 [NBCoV35] was run?
Its IC50 is 266 nM and 195 nM.

What about the IC50 [2] of the same compound?
Its IC50 is 292 nM and 506 nM.

With O=C(O)c1cc(-c2ccc(/C=c3\sc4nc(=O)c5c6c(sc5n4c3=O)CCCC6)o2)ccc1Cl [NBCoV36] as the compound, how does the IC50 [3] read?
The IC50 was 181 to 1180 nM and 129 to 332 nM.

Which results are given for Cc1cc(C)c2nc3s/c(=C\c4ccc(-c5ccc(Cl)c(C(=O)O)c5)o4)c(=O)n3c2c1 [NBCoV37]?
IC50 [1]: 311 nM and 157 nM; IC50 [3]: 82 to 267 nM and 42.5 to 311 nM

Which IC50 [1] does the source give for Cc1cc2nc3s/c(=C/c4ccc(-c5cccc(C(=O)O)c5)o4)c(=O)n3c2cc1C [NBCoV63] here?
Its IC50 is 42.5 nM and 40.8 nM.

And the IC50 [2]?
The IC50 was 45.5 nM and 77.5 nM.

What about the IC50 [3] of the same compound?
Its IC50 is 34 to 96 nM and 26 to 105 nM.
